From US7829524B2, “Antimicrobial peptides” (Novozymes Adenium Biotech A/S, priority 2003, dated 2010)
Like-named read-outs stand apart in the source and are kept apart here. Where no end group is shown, it is not given here.

Legend:
[1] = system: Salmonella choleraesuis (DSM9220); assay: Radial diffusion assay (MEC); type: cell-based; conditions: susceptible species
Method: (§1) A modified version of a previously published protocol has been applied in the detection of antimicrobial activity (Lehrer et al., (1991) Ultra sensitive assays for endogenous antimicrobial polypeptides J Immunol Methods 137: 167-173). Target bacteria (10^6 colony forming units (CFU)) were added to 10 ml of underlay agarose (1% low electro-endosmosis agarose, 0.03% Trypticase soy broth, 10 mM sodium phosphate, pH 7.4, 37 degrees Celsius). Suspension was solidified on an INTEGRID Petri Dish (Becton Dickinson Labware). A 3 mm Gel Puncher was used to make holes in the underlay agarose (Amersham Pharmacia Biotech, Sweden). Samples were added to the holes and incubated at 37 degrees Celsius, 3 hours. An overlay was poured on top and the plate was incubated overnight (LB media, 7.5% Agar). Antimicrobial activity was seen as bacterial clearing zones around the wells. Living cells was counterstained by adding 10 ml, 0.2 mM MTT (3-(4,5-Dimethylthiazol-2-yl)-2,5-diphenyltetrazolium bromide Thiazolyl blue).

[2] = system: Micrococcus luteus (ATCC9341); assay: Radial diffusion assay (MEC); type: cell-based; conditions: susceptible species
Method: as §1

[3] = system: Bacillus subtilis (ATCC6633); assay: Radial diffusion assay (MEC); type: cell-based; conditions: susceptible species
Method: as §1

[4] = system: Enterococcus faecalis (DSM2570); assay: Radial diffusion assay (MEC); type: cell-based; conditions: susceptible species
Method: as §1

[5] = system: Pseudomonas aeroginosa (ATCC27853); assay: Radial diffusion assay (MEC); type: cell-based; conditions: susceptible species
Method: as §1

[6] = system: Staphylococcus aureus (ATCC29737); assay: Radial diffusion assay (MEC); type: cell-based; conditions: susceptible species
Method: as §1

[7] = system: Proteus mirabilis (ATCC7002); assay: Radial diffusion assay (MEC); type: cell-based; conditions: susceptible species
Method: as §1

[8] = system: Klepsiella pneumoniae (ATCC10031); assay: Radial diffusion assay (MEC); type: cell-based; conditions: susceptible species
Method: as §1

[9] = system: Eschericia coli (ATCC10536); assay: Radial diffusion assay (MEC); type: cell-based; conditions: susceptible species
Method: as §1

[10] = system: Staphylococcus epidermidis (DSM1798); assay: Radial diffusion assay (MEC); type: cell-based; conditions: susceptible species
Method: as §1

[11] = system: Bortadella bronchiseptica (ATCC4617); assay: Radial diffusion assay (MEC); type: cell-based; conditions: susceptible species
Method: as §1

[12] = system: Enterococcus hirae (ATCC10541); assay: Radial diffusion assay (MEC); type: cell-based; conditions: susceptible species
Method: as §1

[13] = system: Clostridium difficile ATCC 43594; assay: NCCLS microdilution broth assay (MIC), wound infection strains; type: cell-based; conditions: Table 1; cationic adjusted Muller-Hinton Broth; highest concentration tested 32 μg/ml
Method: (§2) According to the NCCLS guidelines for susceptibility test of novel antimicrobial compounds, we found a broad spectrum of activity of Cat1 (Methods for Dilution Antimicrobial Susceptibility Tests for Bacteria That Grow Aerobically; Approved Standard-Fifth Edition. NCCLS document M7-A5 (ISBN1-56238-394-9)).
(§3) In another campaign, the specific MICs of Cat1 were determined against a variety of microbial strains relevant for wound infections. As recommended in the above-mentioned NCCLS protocol, the strains were grown in cationic adjusted Muller-Hinton Broth. The highest concentration tested was 32 μg/ml.

[14] = system: Eschericia coil (ATCC10536); type: cell-based, Escherichia coli
Method: as §2
(§4) The antimicrobial activity of the polypeptides of the invention was analyzed using the Microdilution Broth Assay (see Example 1) with Mueller Hinton Broth (MHB) media. Four different bacterial strains were tested in this setup; Micrococcus luteus (ATCC 9341), Pseudomonas aeruginosa (ATCC 27853), Escherichia coli (ATCC 10536) and Klebsiella pneumoniae (DSM681). The amino acid sequence of the polypeptides and the Minimal Inhibitory concentrations (MIC, microgram/ml) obtained is presented in Table 7 below.

bacteria strains = assay: NCCLS microdilution broth assay, minimal bactericidal concentration (MBC); type: cell-based; conditions: compared with MIC (<64 μg/ml) of the susceptible strains
Description: as §2

[15] = system: Klebsiella pneumoniae (DSM681); type: cell-based
Method: as §2, §4

Staphylococcus camosus = assay: Radial Diffusion Assay using minimal conditions (MEC); type: cell-based; conditions: Table 8
Method: as §1
(§5) The antimicrobial activity of the polypeptides of the invention was also analyzed in a Radial Diffusion Assay (see Example 1) using minimal conditions. Two bacterial strains were tested in this setup; Staphylococcus camosus and Escherichia coli Top10. The amino acid sequence of the polypeptides and the Minimal Effective Concentration (MEC, microgram/ml) obtained is presented in table 8 below.

Escherichia coli Top10 = assay: as above; type: cell-based; conditions: Table 8
Method: as §1, §5

[16] = system: Micrococcus luteus (ATCC9341); type: cell-based; conditions: susceptible strain, NCCLS guidelines
Method: as §2, §3, §4

[17] = system: Pseudomonas aeroginosa (ATCC 27853); assay: Killing kinetics in MHB; type: cell-based, Pseudomonas aeruginosa; conditions: Cat1 at 4×MIC
Method: The rate of killing of Cat1 was determined in MHB using Pseudomonas aeroginosa (ATCC 27853) as the test organism. The bacteria were incubated with Cat1 (at 4×MIC concentration). At different time-points, several dilutions of the preparation were plated and an estimate of viable cells was determined (CFU/ml). The results in Table 3 indicate that Cat1 rapidly kills the bacteria, with a near 3-log reduction in CFU within 30 minutes.

[18] = system: Bacillus subtilis (ATCC6633); assay: NCCLS microdilution broth assay (MIC); type: cell-based; conditions: susceptible strain, NCCLS guidelines
Description: as §2

[19] = system: Enterococcus faecalis (DSM2570); assay: NCCLS microdilution broth assay (MIC); type: cell-based; conditions: susceptible strain, NCCLS guidelines
Description: as §2

[20] = system: Proteus mirabilis (ATCC7002); assay: NCCLS microdilution broth assay (MIC); type: cell-based; conditions: susceptible strain, NCCLS guidelines
Description: as §2

[21] = system: Klepsiella pneumoniae (ATCC10031); assay: NCCLS microdilution broth assay (MIC); type: cell-based; conditions: susceptible strain, NCCLS guidelines
Description: as §2

[22] = system: Staphylococcus epidermidis (DSM1798); assay: NCCLS microdilution broth assay (MIC); type: cell-based; conditions: susceptible strain, NCCLS guidelines
Description: as §2

[23] = system: Bortadella bronchiseptica (ATCC4617); assay: NCCLS microdilution broth assay (MIC); type: cell-based; conditions: susceptible strain, NCCLS guidelines
Description: as §2

Sequence: GLLRRLRKKIGKKLKKIGQKIKPIRILVP [SEQ ID NO: 3]
- Minimal Effective Concentration (MEC) [1]: < 64 µg/mL
- Minimal Effective Concentration (MEC) [2]: < 64 µg/mL
- Minimal Effective Concentration (MEC) [3]: < 64 µg/mL
- Minimal Effective Concentration (MEC) [4]: < 64 µg/mL
- Minimal Effective Concentration (MEC) [5]: < 64 µg/mL
- Minimal Effective Concentration (MEC) [6]: < 64 µg/mL
- Minimal Effective Concentration (MEC) [7]: < 64 µg/mL
- Minimal Effective Concentration (MEC) [8]: < 64 µg/mL
- Minimal Effective Concentration (MEC) [9]: < 64 µg/mL
- Minimal Effective Concentration (MEC) [10]: < 64 µg/mL
- Minimal Effective Concentration (MEC) [11]: < 64 µg/mL
- Minimal Effective Concentration (MEC) [12]: < 64 µg/mL
- MIC [13]: 32 µg/mL
- MIC ([14]; ATCC10536): 8 µg/mL
- MIC ([14]; susceptible strain, NCCLS guidelines): < 64 µg/mL
- Minimal bactericidal concentration (MBC) (bacteria strains): in a similar range
- MIC [15]: 32 to 64 µg/mL
- MEC (Staphylococcus camosus): 2.5 µg/mL
- MEC (Escherichia coli Top10): 8.5 µg/mL
- MIC [16]: < 64 µg/mL
- viable cells (CFU/ml) ([17]; 0.5 hours): 175 CFU/ml
- viable cells (CFU/ml) ([17]; 1.5 hours): <20 CFU/ml
- viable cells (CFU/ml) ([17]; 24 hours): <20 CFU/ml
- reduction in CFU ([17]; within 30 minutes): ~3 log
- MIC [18]: < 64 µg/mL
- MIC [19]: < 64 µg/mL
- MIC [20]: < 64 µg/mL
- MIC [21]: < 64 µg/mL
- MIC [22]: < 64 µg/mL
- MIC [23]: < 64 µg/mL
